In assay [1] the test system is Human Burkitt's lymphoma cell line: Daudi. Put plainly: Half inhibitory concentration (IC50) against tumor cells, CCK-8 cell viability. The assay is classed as cell-based. Conditions: 96 h treatment. How it is done: (§1) The tumor cells used herein were cultured in a cell culture medium listed in table 2 at 37° C. in an incubator with 5% CO2. Prior to experimentation, all cells used were correctly identified by STR profiling, and tested negative for mycoplasma through routine screenings. [table] Determination of Half Inhibitory Concentration (IC50) of the Compounds Against Tumor Cells: IC50 values of the compounds of the present disclosure (including the compounds in Table 1, and compounds of examples 1-104) were measured using the Meilun Cell Counting Kit-8 kit from Dalian Meilun Biotech Co., Ltd. Assay details are as follows: tumor cells were seeded in a 96-well plate at a density listed in Table 3. After 24 h, 100 μL of the inoculated cells were treated with 0.5 μl of the compounds of the present disclosure (including the compounds in Table 1, and compounds of examples 1-104) at 10 different successively decreasing concentrations (starting at the highest concentration of […]; 5-fold serial dilutions). After the cells were treated with the compounds of the present disclosure for a period of time, cell viability was measured according to the instructions provided with the CCK-8 kit. DMSO served as the negative control, and corresponding commercial immunomodulatory drug Avadomide (CC-122) was used as the positive control, both of which treated the cells using the same protocol as that of the compounds of the present disclosure. The growth inhibition of the compounds of the present disclosure on cells was plotted by Prism Graphpad software, and the IC50 values of the compounds of the present disclosure were calculated therefrom. [table] We tested the activities of the compounds of the present invention (including the compounds in Table 1 and Examples 1-104 compounds) in tumor cells through a dose-dependent manner. The cells were treated with the compounds of the present invention at 10 different successively decreasing concentrations (starting at the highest concentration of 10 μM; 5-fold serial dilutions) for 72 h or 96 h, and then the cell viability determination was performed in accordance with CCK-8 reagent operating instructions.

In assay [2] the test system is Human diffuse large B-cell lymphoma cell line: TMD8. The assay is described as above. The class given is cell-based. Conditions: 96 h treatment. On the procedure: as §1
The subject of assay [3] is Human multiple myeloma cells: MM.1S. The description is as above. The assay is classed as cell-based. The following applies: MM1.S, MM.1S cells, 72 h treatment. How it is done:
as §1

Assay [4] relates to Human colon cancer cell: SW620. Described as above. Conditions: SW-620, 96 h treatment. The class given is cell-based. How it is done:
as §1

Assay [5] deals with Human cell line: Kasumi-1. The assay is described as above. The following applies: Kasumi-1 cells, 72 h treatment. The assay is classed as cell-based. How it is done:
as §1

Assay [6] has as its system Human B-lymphoma cell: Ramos. The assay is described as above. The class given is cell-based. Conditions: 96 h treatment. How it is done: as §1
Assay [7] relates to Human dexamethasone-resistant multiple myeloma cell line: MM.1R. The assay is described as above. The class given is cell-based. The following applies: MM.1R cells, 72 h treatment. On the procedure:
as §1

The target in assay [8] is human Cereblon WT GST-tagged protein (Homo sapiens (Human), UniProt Q96SW2). Briefly: CRBN-binding affinity, CEREBLON BINDING kit (HTRF). The following applies: HTRF inhibitory activity, binding to CRBN. The source says: Determination of CRBN-Binding Affinity of Compounds
The CEREBLON BINDING kits (specification: 10,000 tests; product number: Catalog #64BDCRBNPEH; CISBIO company) was used to determine the CRBN binding ability of the compounds to be tested through a HTRF method (homogeneous time-resolved fluorescence). The specific methods are as follows: • 1. According to the instructions of the CEREBLON BINDING kits, the compounds to be tested of the present invention and lenalidomide were serially diluted using diluent #9 (1×) solution to obtain a final concentration of 2 μM for both the tested compounds and lenalidomide solution. • 2.2.5 μL of the above 2 μM of the tested compounds and lenalidomide solution, as well as the same volume of diluent #9 (1×) solution (solvent control group, Std0) were taken and added to each well of a 96-well plate, respectively. Then, 2.5 μL of (human Cereblon WT GST-tagged protein) solution was added to each well. Finally, 5 μL of the uniformly mixed thalidomide-Red reagent and GST Eu antibody working solution were added to each of the above wells. The final concentration of the tested compounds and lenalidomide in each well is 0.5 μM. • 3. The blank control wells were sequentially added with 2.5 μL of diluent #9 (1×) solution, 2.5 μL of PROTAC binding buffer, and 5 μL of uniformly mixed thalidomide-Red reagent and GST Eu antibody working solution. • 4. After sealing and incubating the solutions in the above wells at room temperature for 3 hours, the absorbance values at emission wavelengths of 620 nm and 665 nm were detected by the HTRF method using a Spark microplate reader (V3.1 SP1).
The corresponding CRBN binding inhibition rate was calculated using the following method: […]
Note: OD 665 nmcompound is the absorbance value of each well of the compounds to be tested of the present disclosure at an emission wavelength of 665 nm.
OD 620 nmcompound is the absorbance value of each well of the compounds to be tested of the present disclosure at an emission wavelength of 620 nm.
OD 665 nmcontrol is the absorbance value of the blank control well at an emission wavelength of 665 nm.
OD 620 nmcontrol is the absorbance value of the blank control well at an emission wavelength of 620 nm.
OD 665 nmstd0 is the absorbance value of the solvent control well at an emission wavelength of 665 nm.
OD 620 nmstd0 is the absorbance value of the solvent control well at an emission wavelength of 620 nm.

Data on 8 compounds can be found in patent publication US20240425475A1, “COMPOUND BASED ON QUINAZOLINE-SUBSTITUTED GLUTARIMIDE SKELETON AND USE THEREOF” (GLUETACS THERAPEUTICS (SHANGHAI) CO., LTD., priority 2022, published 2024).

pIC50: −log10 of the molar value.

human Cereblon WT GST-tagged protein, sequence (Q96SW2 whole entry): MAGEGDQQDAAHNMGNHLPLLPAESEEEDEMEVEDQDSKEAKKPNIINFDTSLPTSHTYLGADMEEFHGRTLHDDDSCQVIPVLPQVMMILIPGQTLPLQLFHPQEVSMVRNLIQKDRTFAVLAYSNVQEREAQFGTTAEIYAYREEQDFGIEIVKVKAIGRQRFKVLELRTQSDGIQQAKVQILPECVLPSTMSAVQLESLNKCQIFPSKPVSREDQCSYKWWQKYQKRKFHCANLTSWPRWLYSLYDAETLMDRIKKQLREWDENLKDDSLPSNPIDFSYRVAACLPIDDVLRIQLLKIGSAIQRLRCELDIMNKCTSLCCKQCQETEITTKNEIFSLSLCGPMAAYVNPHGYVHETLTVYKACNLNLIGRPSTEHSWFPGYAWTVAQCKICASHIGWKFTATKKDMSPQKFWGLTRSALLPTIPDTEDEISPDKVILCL

As to `Cc1nc2cccc(N)c2c(=O)n1C1CCC(=O)NC1=O` (stereo not shown) [CC-122, Avadomide, reference compound], the pIC50 in assay [1] is 5.78; in assay [2], 6.05; in assay [3], 7.33; in assay [4], less than 5.00; in assay [5], less than 5.00; in assay [6], 5.88. The same compound showed a pIC50 in assay [7] of 6.33.
Consider `Cc1nc2cccc(SCCCN3CCN(CC45CC6CC(CC(C6)C4)C5)CC3)c2c(=O)n1C1CCC(=O)NC1=O` (stereo not shown) [GT-03235, 3-(5-((3-(4-(((1s,3s)-adamantan-1-yl)methyl)piperazin-1-yl)propyl)thio)-2-methyl-4-oxoquinazolin-3(4H)-yl)piperidine-2,6-dione], for which the pIC50 in assay [6] was 6.40; in assay [8] it was 5.62.
Regarding `Cc1nc2cccc(NCCN3CCN(CCC45CC6CC(CC(C6)C4)C5)CC3)c2c(=O)n1C1CCC(=O)NC1=O` (stereo not shown) [GT-03301, 3-(5-((2-(4-(2-((3r,5r,7r)-adamantan-1-yl)ethyl)piperazin-1-yl)ethyl)amino)-2-methyl-4-oxoquinazolin-3(4H)-yl)piperidine-2,6-dione], the pIC50 in assay [1] was 6.81; in assay [2], 6.73; in assay [3], 7.10; in assay [4], 7.45; in assay [5], 6.98; in assay [6], 6.78. The pIC50 in assay [7] is 7.48; in assay [8], 5.76.
With `Cc1nc2cccc(SCCN3CCN(CCC45CC6CC(CC(C6)C4)C5)CC3)c2c(=O)n1C1CCC(=O)NC1=O` (stereo not shown) [GT-03305, 3-(5-((2-(4-(2-((3r,5r,7r)-adamantan-1-yl)ethyl)piperazin-1-yl)ethyl)thio)-2-methyl-4-oxoquinazolin-3(4H)-yl)piperidine-2,6-dione], the pIC50 was 6.14 in assay [4] and 5.92 in assay [8].
For `Cc1nc2cccc(SCCCN3CCN(CCC45CC6CC(CC(C6)C4)C5)CC3)c2c(=O)n1C1CCC(=O)NC1=O` (stereo not shown) [GT-03306, 3-(5-((3-(4-(2-((3r,5r,7r)-adamantan-1-yl)ethyl)piperazin-1-yl)propyl)thio)-2-methyl-4-oxoquinazolin-3(4H)-yl)piperidine-2,6-dione], the pIC50 is 7.35 in assay [1]; 7.06 in assay [2]; 7.53 in assay [3]; 7.73 in assay [4]; 7.65 in assay [5]; 7.05 in assay [6]. Also, the pIC50 in assay [7] is 7.90; in assay [8] it was 5.80.
With `Cc1nc2cccc(SCCCN3CCN(C(c4ccc(F)cc4)c4ccc(F)cc4)CC3)c2c(=O)n1C1CCC(=O)NC1=O` (stereo not shown) [GT-03387, 3-(5-((3-(4-(bis(4-fluorophenyl)methyl)piperazin-1-yl)propyl)thio)-2-methyl-4-oxoquinazolin-3(4H)-yl)piperidine-2,6-dione], the pIC50 in assay [1] is 6.54; in assay [2], 6.69; in assay [6] it was 6.31; in assay [7], 6.56.
Take `Cc1nc2cccc(SCCCN3CCN(C(c4ccc(Cl)cc4)c4ccc(Cl)cc4)CC3)c2c(=O)n1C1CCC(=O)NC1=O` (stereo not shown) [GT-03697, 3-(5-((3-(4-(bis(4-chlorophenyl)methyl)piperazin-1-yl)propyl)thio)-2-methyl-4-oxoquinazolin-3(4H)-yl)piperidine-2,6-dione]: the pIC50 in assay [1] is 6.26; in assay [5], 6.16; in assay [6] it was 6.19; in assay [7], 6.69.
With `Cc1nc2cccc(N3CC(C)N(CCC45CC6CC(CC(C6)C4)C5)C(C)C3)c2c(=O)n1C1CCC(=O)NC1=O` (stereo not shown) [GT-04246, 3-(5-(4-(2-((3r,5r,7r)-adamantan-1-yl)ethyl)-3,5-dimethylpiperazin-1-yl)-2-methyl-4-oxoquinazolin-3(4H)-yl)piperidine-2,6-dione], the pIC50 in assay [2] is 6.38; in assay [4] it was 6.41.
